{
  "source": "patent US20090023685A1",
  "about": "“Nebulized or Sprayed Cidofovir for Recurrent Respiratory Papillomatosis” (priority 2007, published 2009)",
  "system": "Recurrent Respiratory Papillomatosis due to Human Papillomavirus subtype 6 (HPV-6)",
  "assay": "Case report: systemic, topical and nebulized cidofovir in a young child with recurrent respiratory papillomatosis",
  "assay_type": "in vivo",
  "description": "We decided that applying cidofovir using a flexible bronchoscope and a cytology brush soaked in cidofovir would be a reasonable method to attempt to deliver the drug to the papillomas. We used the intravenous form of the drug, diluted to the concentration used in the gel based formula.\nTherefore, we made a 4 ml solution at the same concentration we were using for the topical application.\nTherefore, we elected to nebulize the drug (Cidofovir 10 mg/ml in NS, 4 cc, 3 times/week).\nBackground: a person is an ex-prem (24 week GA) born to a mom who had antenatal bleeding and had been given steroids prior to delivery. Their postnatal course was complicated by Respiratory distress syndrome (mechanical ventilation for 52 days, CPAP for 28 days and O2 for 30 days), a patent ductus arteriousus (indomethacin & surgical ligation), hemodynamic instability necessitating inotropic support and renal failure. Following discharge home a person had severe GERD, (L) inguinal hernia repair and was described to have colic.\nPresentation: At 10½ months of age, they presented to the Children's Hospital Emergency Room with increasing difficulties breathing. […] They were admitted to hospital and subsequently transferred to the Pediatric intensive care unit. They were diagnosed with upper airway obstruction and treated with Heliox (80:20) and nebulized racemic epinephrine. […] They underwent tracheostomy.\nInitial management: Suspension laryngoscopy with CO2 laser for debulking papillomas was performed ×6 (locally) and ×2 (larger tertiary centre) (FIG. 1b). […] Palliation was discussed with the […].\nAdjuvant therapy: Medical management was initiated 6 months into treatment.\nTopical and nebulized cidofovir: The patient was started on topically applied cidofovir via flexible bronchoscopy q2 weeks in addition to continuing the intravenous (systemic) dose. A cytology brush was soaked in cidofovir 10 mg/ml solution and advanced via the bronchoscope to the lower airway papillomas (FIG. 2a). We elected to start nebulized cidofovir to reduce the frequency of Bronchoscopic procedures and to intensify treatment. […] After 6 months of nebulized cidofovir, the dose was reduced to 2× weekly.\nCurrent status: A large papilloma was surgically debulked (microdebridment) and topical cidofovir was topically applied to the base of the lesion. […] undergoes surveillance bronchoscopy q3 months and continues on nebulized cidofovir 5 mg/ml, 4 cc 2× weekly (FIGS. 2c and 3b).",
  "note": "“Also recorded” adds a separate entry of the source.",
  "data": [
    {"smiles": "Nc1ccn(C[C@@H](CO)OCP(=O)(O)O)c(=O)n1", "note": "[cidofovir]", "values": [
      {"measurement": "current disease status", "setting": "after nebulized cidofovir, surgical debulking of a large papilloma and topical cidofovir to its base", "value": "papilloma free; also recorded: Her disease has remitted"},
      {"measurement": "effect on papillomatosis", "setting": "intravenous (systemic) cidofovir 4.1 mg/kg/dose every 4 weeks", "value": "without effect"},
      {"measurement": "effect in the lung (CT scans)", "setting": "nebulized cidofovir", "value": "improvement in the lung"},
      {"measurement": "complications / side effects", "setting": "nebulized cidofovir 10 mg/ml, 4 ml (total dose 40 mg), 3× weekly", "value": "bleeding (dose dependent & related to infection with bacteria; also recorded: cough"},
      {"measurement": "complications / side effects", "setting": "nebulized cidofovir 10 mg/ml, 4 ml (total dose 40 mg), 3× weekly, listed as Cidofovir", "value": "hemoptysis; also recorded: bleeding and protracted airways inflammation"},
      {"measurement": "complications / side effects", "setting": "nebulized cidofovir after the dose was reduced (5 mg/ml; later 2 times/week)", "value": "resolution of the complications"},
      {"measurement": "complications / side effects", "setting": "nebulized cidofovir after the dose was reduced (5 mg/ml; later 2 times/week), listed as Cidofovir", "value": "without complications"},
      {"measurement": "effect on lower airway papillomas", "setting": "nebulized cidofovir in saline, 4 ml, 2-3 times/week", "value": "worked well; also recorded: reduction of the burden of the papillomas"},
      {"measurement": "effect on lower airway papillomas", "setting": "nebulized cidofovir in saline, 4 ml, 2-3 times/week, listed as Cidofovir", "value": "lower airway lesions have visually disappeared"},
      {"measurement": "papillomas in the main airway (trachea)", "setting": "nebulized cidofovir, droplet size 2-4 microns", "value": "remained large"},
      {"measurement": "course of disease", "setting": "systemic cidofovir q2 weeks plus Interferon α2b 5 MU/m^2 3× weekly, listed as Cidofovir", "value": "did not halt the progression of the disease"},
      {"measurement": "course of lesions", "setting": "systemic cidofovir stepped down to q3 weeks (with Interferon α2b)", "value": "the lesions worsened"},
      {"measurement": "effect on lower airway papillomas", "setting": "topical cidofovir (10 mg/ml, thickened with sterile glycerine) applied by cytology brush via flexible bronchoscopy every 2 weeks", "value": "worked to reduce the size of the papillomas"},
      {"measurement": "effect on lower airway papillomas", "setting": "topical cidofovir (10 mg/ml, thickened with sterile glycerine) applied by cytology brush via flexible bronchoscopy every 2 weeks, listed as Cidofovir", "value": "The lesions regressed"}
    ]}
  ]
}
